Source: patent US5861410A, “Tetrahydro-beta-carbolines” (Eli Lilly and Company, priority 1997, dated 1999)
Where a name gives a salt, the structure may show the parent alone.

Experiments:
5-HT1c receptor = target: T1, 5-HT1c receptor (Bos taurus, UniProt A0AAA9SBU1); assay: Assay for 5-HT1c affinity, radioligand binding (selectivity against 5-HT2 receptor assay); design: species or system beef; conditions: low IC50 in the 5-HT1c receptor assay and a higher IC50 in the 5-HT2 receptor assay
T1 sequence (A0AAA9SBU1 33-457): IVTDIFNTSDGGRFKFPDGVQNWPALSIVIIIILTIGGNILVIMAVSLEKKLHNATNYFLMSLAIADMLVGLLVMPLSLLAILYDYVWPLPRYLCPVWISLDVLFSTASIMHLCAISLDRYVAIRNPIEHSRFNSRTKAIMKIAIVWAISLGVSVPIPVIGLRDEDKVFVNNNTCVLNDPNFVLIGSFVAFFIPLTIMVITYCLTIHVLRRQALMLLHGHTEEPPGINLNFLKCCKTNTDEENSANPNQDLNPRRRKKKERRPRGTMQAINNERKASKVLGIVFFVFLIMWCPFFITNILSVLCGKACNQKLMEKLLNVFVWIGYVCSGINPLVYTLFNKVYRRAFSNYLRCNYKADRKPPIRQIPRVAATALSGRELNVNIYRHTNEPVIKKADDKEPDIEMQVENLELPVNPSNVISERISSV
Protocol: Beef brain was removed immediately after slaughter, and choroid plexus were dissected over ice. […] The brain of each was immediately removed and the cerebral cortex was dissected over ice. Tissues were homogenized in 9 volumes of 0.32 mol/L sucrose and centrifuged at 1,000×g for 10 minutes. The supernatant was centrifuged at 17,000 x g for 20 minutes. The pellet was suspended in 100 volumes of 50 mM Tris-HCl (pH7.4), incubated at 37° C. for 10 minutes and centrifuged at 50,000×g for 10 minutes, and the process was repeated three times. The final pellets were frozen at -70° C. and used within 2 weeks. Pellets were rehydrated with physiological buffer prior to use.
For 5-HT1c receptor assays increasing concentrations of experimental compound, 50 mM Tris HCl buffer pH 7.4 , and tritiated mesulergine (2.0 nM) (^3 H ligand) were combined in polystyrene tubes at room temperature. The reaction was initiated by the addition of the resuspended choroid plexus tissue which had been preincubated at 37° C. for 20 minutes. The reaction mixture was incubated in a 37° C. water bath for 15 minutes.
The reactions were terminated by rapid filtration, (Brandel Cell Harvestor), through Whatman GF/B glass filters that had been presoaked in Tris buffer pH 7.4. The filters were then washed 2 times with 5 ml of ice cold Tris buffer pH 7.4. Washed filters were placed in scintillation vials and 10 ml RedySolv, (Brandel), was added and samples were counted in a Searle D-300 beta counter. Means and standard error statistics were calculated for triplicate experimental determinations in certain cases. Mean values were obtained from three or more separate determinations. The incubation time for the reaction mixture was 15 minutes at 37° C.

5HT2B = target: T2, 5HT2B (Homo sapiens, UniProt P41595); assay: Cell assay using human cells, 5HT2B (radioligand binding); conditions: Table I
T2 construct: expressed in transfected cells
T2 sequence (P41595 whole entry): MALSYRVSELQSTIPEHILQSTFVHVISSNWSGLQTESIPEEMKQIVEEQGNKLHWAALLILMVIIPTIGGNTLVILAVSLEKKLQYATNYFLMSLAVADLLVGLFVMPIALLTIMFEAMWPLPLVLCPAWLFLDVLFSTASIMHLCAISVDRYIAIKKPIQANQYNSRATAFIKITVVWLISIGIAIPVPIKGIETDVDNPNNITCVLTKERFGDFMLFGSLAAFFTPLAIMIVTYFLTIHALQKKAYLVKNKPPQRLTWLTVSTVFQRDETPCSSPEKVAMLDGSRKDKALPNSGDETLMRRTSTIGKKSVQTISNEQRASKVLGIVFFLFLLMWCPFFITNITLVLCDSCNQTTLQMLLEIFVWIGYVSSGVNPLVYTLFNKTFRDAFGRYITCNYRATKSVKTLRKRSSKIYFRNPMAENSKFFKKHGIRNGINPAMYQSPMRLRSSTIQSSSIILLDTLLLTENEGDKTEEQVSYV

5HT2A = target: T3, 5HT2A (Homo sapiens, UniProt P28223); assay: Cell assay using human cells, 5HT2A; type: binding; conditions: Table I
T3 construct: expressed in transfected cells
T3 sequence (P28223 whole entry): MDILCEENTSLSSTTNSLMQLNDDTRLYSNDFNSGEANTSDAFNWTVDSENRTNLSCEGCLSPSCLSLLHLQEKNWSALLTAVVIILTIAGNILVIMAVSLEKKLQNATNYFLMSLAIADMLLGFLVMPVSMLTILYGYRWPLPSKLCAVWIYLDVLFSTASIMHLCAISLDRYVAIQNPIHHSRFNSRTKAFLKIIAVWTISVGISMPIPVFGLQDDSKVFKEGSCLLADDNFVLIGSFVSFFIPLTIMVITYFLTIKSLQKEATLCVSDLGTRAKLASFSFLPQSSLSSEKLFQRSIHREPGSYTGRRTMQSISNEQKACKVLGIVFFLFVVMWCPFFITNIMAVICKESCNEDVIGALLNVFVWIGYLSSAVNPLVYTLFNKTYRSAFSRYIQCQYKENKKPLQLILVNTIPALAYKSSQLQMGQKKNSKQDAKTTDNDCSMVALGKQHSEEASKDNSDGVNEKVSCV
Protocol: (§1) The Kd and Bmax values from the saturation assays were determined for best fit to a one-site or a two-site binding model using a partial F-test. De Lean, A., A. A. Hancock, and R. J. Lefkowitz, Mol. Pharmacol. 21:5-16 (1981). The following equation was used for a one-site binding model, [formula] where Bound=amount of [^3 H]5-HT specifically bound, Bmax =maximum number of binding sites, Kd =equilibrium dissociation constant and [L]=free concentration of [^3 H]5-HT, or a two-site binding model, [formula] where Bound=amount of [^3 H]5-HT specifically bound, Bmax1 =maximum number of high affinity binding sites, Bmax2 =maximum number of low affinity binding sites, Kd1 =equilibrium dissociation constant for the high affinity site, Kd2 =equilibrium dissociation constant for the low affinity site and [L]=free concentration of [^3 H]5-HT. The IC50 values from the competition assays, the binding parameters for the IP3 standard curve and the EC50 and Emax values from the IP3 assays were determined by nonlinear regression analysis of four parameter logistic equations (Systat, Systat Inc, Evanston, Ill.). De Lean, A., A. A. Hancock, and R. J. Lefkowitz, Mol. Pharmacol., 21:5-16 (1981). The IC50 values were converted to Ki values using the Cheng-Prusoff equation. Cheng, Y., and W. H. Prusoff, Biochem. Pharmacol., 22:3099-3108 (1973).
(§2) The following Cell assays use Human Cells

5HT2C = target: T4, 5HT2C (Homo sapiens, UniProt P28335); assay: Cell assay using human cells, 5HT2C; type: binding; conditions: Table I
T4 construct: expressed in transfected cells
T4 sequence (P28335 33-458): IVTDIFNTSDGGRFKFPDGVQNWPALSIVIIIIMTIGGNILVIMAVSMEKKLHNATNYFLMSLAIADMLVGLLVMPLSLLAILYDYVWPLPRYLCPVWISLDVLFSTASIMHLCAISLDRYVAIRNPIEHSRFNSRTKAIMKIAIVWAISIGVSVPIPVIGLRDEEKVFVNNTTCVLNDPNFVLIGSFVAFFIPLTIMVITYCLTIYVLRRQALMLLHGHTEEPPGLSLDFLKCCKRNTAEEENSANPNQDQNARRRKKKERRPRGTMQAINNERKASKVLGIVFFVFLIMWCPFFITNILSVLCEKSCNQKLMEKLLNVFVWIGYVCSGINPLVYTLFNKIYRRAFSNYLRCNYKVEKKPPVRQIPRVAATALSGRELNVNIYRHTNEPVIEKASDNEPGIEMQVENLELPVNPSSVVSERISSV
Protocol: as §1, §2

Row | Structure (SMILES) | 5-HT1c selective (5-HT1c receptor) | Ki (5HT2B) [nM] | Ki (5HT2A) [nM] | Ki (5HT2C) [nM] | Ki (5HT2B; hydrochloride) [nM] | Ki (5HT2A; hydrochloride) [nM] | Ki (5HT2C; hydrochloride) [nM]
1 | Cc1ccc2[nH]cc([C@@H]3CCCC[C@H]3N)c2c1.Cl (relative stereo) [Example 3, Trans-3-(2-amino-cyclohexyl)-5-methylindole, hydrochloride] | particularly 5-HT1c selective |  |  |  |  |  | 
2 | Cl.N[C@@H]1CCCC[C@H]1c1c[nH]c2c(Cl)cccc12 (relative stereo) [Example 4, Trans-3-(2-amino-cyclohexyl)-7-chloroindole, hydrochloride] | particularly 5-HT1c selective |  |  |  |  |  | 
3 | Cc1ccc2[nH]c3c(c2c1)[C@@H]1CCCC[C@H]1NC3 (relative stereo) [Example 6, Trans-10-methyl-2,3,4,4a,5,6,7,11c-octahydro-1H-indolo[2,3-c] quinoline, hydrochloride] | particularly 5-HT1c selective |  |  |  |  |  | 
4 | Clc1cccc2c3c([nH]c12)CN[C@@H]1CCCC[C@@H]31 (relative stereo) [Example 7, Trans-8-chloro-2,3,4,4a,5,6,7,11c-octahydro-1 H-indolo[2,3-c]quinoline, hydrochloride] | particularly 5-HT1c selective | 668 | 278 | 977 |  |  | 
5 | COc1ccc(CC2N[C@@H]3CCC[C@H]3c3c2[nH]c2ccc(C)cc32)cc1OC (relative stereo) [Example 8, Trans-5-(3,4-dimethoxybenzyl)-9-methyl-1,2,3,4,4a,5,6,10c-octahydrocyclopenta[a]pyrido [3,4-b]indole, hydrochloride] |  | 9.56 | 124 | 221 |  |  | 
6 | COc1ccc(CC2N[C@@H]3CCC[C@H]3c3c2[nH]c2c(Cl)cccc32)cc1OC (relative stereo) [Example 9, Trans-7-chloro-5-(3,4-dimethoxybenzyl)-1,2,3,4,4a,5,6,10c-octahydrocyclopenta[a]pyrido [3,4-b]indole, hydrochloride] |  | 52.5 | 53.6 | 203 |  |  | 
7 | COc1ccc(CC2N[C@@H]3CCC[C@H]3c3c2[nH]c2c(C)cc(C)cc32)cc1OC (relative stereo) [Example 10, Trans-5-(3,4-dimethoxybenzyl)-7,9-dimethyl-1,2,3,4,4a,5,6,10c-octahydrocyclopenta[a]pyrido [3,4-b]indole, hydrochloride] | particularly 5-HT1c selective | 106 | 556 | 1120 |  |  | 
8 | COc1ccc(CC2N[C@@H]3CCCC[C@H]3c3c2[nH]c2ccc(C)cc32)cc1OC (relative stereo) [Example 11, Trans-6-(3,4-dimethoxybenzyl)-10-methyl-2,3,4,4a,5,6,7,11c-octahydro-1H-indolo[2,3-c]quinoline, hydrochloride] |  | 16.4 | 293 | 352 |  |  | 
9 | COc1ccc(CC2N[C@@H]3CCCC[C@H]3c3c2[nH]c2c(Cl)cccc32)cc1OC (relative stereo) [Example 12, Trans-8-chloro-6-(3,4-dimethoxybenzyl)-2,3,4,4a,5,6,7,11c-octahydro-1H-indolo[2,3-c]quinoline, hydrochloride] |  | 121 | 172 | 783 |  |  | 
10 | COc1ccc(CC2N[C@@H]3CCCC[C@H]3c3c2[nH]c2c(C)cc(C)cc32)cc1OC (relative stereo) [Example 13, Trans-6-(3,4-dimethoxybenzyl)-8,10-dimethyl-2,3,4,4a,5,6,7,11c-octahydro-1H-indolo[2,3-c]quinoline, hydrochloride] | particularly 5-HT1c selective | 168 | 917 | 2170 |  |  | 
11 | COc1ccc(CC2N[C@@H]3CCCCC[C@H]3c3c2[nH]c2ccc(C)cc32)cc1OC (relative stereo) [Example 14, Trans-7-(3,4-dimethoxybenzyl)-11-methyl-1,2,3,4,5,5a,6,7,8,12a-decahydrocyclohepta[a]pyrido[3,4-b]indole, hydrochloride] |  | 3520 | 1450 | 9250 |  |  | 
12 | Cc1ccc2[nH]c3c(c2c1)[C@@H]1CCC[C@H]1NC3Cc1cccc2ccccc12 (relative stereo) [Example 15, Trans-9-methyl-5-(1-naphthylmethyl)-1,2,3,4,4a,5,6,10c-octahydrocyclopenta[a]pyrido [3,4]-blindole, hydrochloride] |  |  | 33 | 52.1 |  |  | 
13 | Cc1ccc2[nH]c3c(c2c1)[C@@H]1CCCC[C@H]1NC3Cc1cccc2ccccc12 (relative stereo) [Example 16, Trans-10-methyl-6-(1-naphthylmethyl)-2,3,4,4a,5,6,7,11c-octahydro-1H-indolo[2,3-c]quinoline, hydrochloride] | particularly 5-HT1c selective |  |  |  |  |  | 
14 | Cc1cc(C)c2[nH]c3c(c2c1)[C@@H]1CCCC[C@H]1NC3Cc1cccc2ccccc12 (relative stereo) [Example 17, Trans-8,10-dimethyl-6-(1-naphthylmethyl)-2,3,4,4a,5,6,7,11c-octahydro-1H-indolo[2,3-c]quinoline, hydrochloride] |  | 367 | 264 | 1110 |  |  | 
15 | COc1cc2c(cc1OC)CC1(CC2)N[C@H]2CCCC[C@@H]2c2c1[nH]c1ccc(C)cc21 (relative stereo) [Example 18, Trans-spiro-6,6-[2-(3,4-dimethoxy)-1,2,3,4-tetrahydronaphthyl]-10-methyl-2,3,4,4a,5,6,7,11a-octahydro-1 H-indolo[2,3-c]quinidine, hydrochloride] |  |  |  |  | 178 | 363 | 325
16 | COc1cc2c(cc1OC)CC1(CC2)N[C@H]2CCCC[C@@H]2c2c1[nH]c1ccc(C)cc21 (single isomer, unassigned; isomer 18) [Isomer 18(1), Trans-spiro-6,6-[2-(3,4-dimethoxy)-1,2,3,4-tetrahydronaphthyl]-10-methyl-2,3,4,4a,5,6,7,11a-octahydro-1 H-indolo[2,3-c]quinidine, hydrochloride] |  |  |  |  | 143 | 153 | 138
17 | COc1cc2c(cc1OC)CC1(CC2)N[C@H]2CCCC[C@@H]2c2c1[nH]c1ccc(C)cc21 (single isomer, unassigned; isomer 18) [Isomer 18(2), Trans-spiro-6,6-[2-(3,4-dimethoxy)-1,2,3,4-tetrahydronaphthyl]-10-methyl-2,3,4,4a,5,6,7,11a-octahydro-1 H-indolo[2,3-c]quinidine, hydrochloride] |  |  |  |  | 2890 | 1970 | 6210
